Test results taken from article PMC3927586, “Protein kinase C-delta inactivation inhibits the proliferation and survival of cancer stem cells in culture and in vivo” (BMC Cancer, 2014).
Read-outs that look alike come from different tables or passages of the source.

Tests used:
[1] = test system: cells with aberrant Ras signaling; design: method as in PMID 24506253; conditions: cited from earlier work
Hs578T cells = assay: Tumor spheroid formation, Hs578T; type: cell-based, human; conditions: for effect on formation of spheroids, Hs578T: added to culture medium, 96 hr, p≤0.001
Procedure: (§1) Tumor self-renewing and anchorage-independent spheroids were obtained by culturing breast cancer cells MCF7, Hs587T and MDA231; melanoma cells SBcl2 and FM6; human breast cancer stem cells and pancreatic cancer stem cells in stem cell-selective conditions according to the manufacturer’s instructions (StemCell Technologies, Tukwila, WA). Briefly, cancer and cancer stem cells were propagated in 6-well ultra-low adherent plates (Corning) in Complete MammoCult Medium (Human) by adding 50 mL of MammoCult Proliferation Supplements to 450 mL of MammoCult Basal Medium (StemCell Technologies). The following were added to obtain Complete MammoCult Medium: 4 ug/mL Heparin (StemCell Technologies), 0.48 μg/mL hydrocortisone (StemCell Technologies), 200 U penicillin/ml; and 200 μg streptomycin/ml (Invitrogen).
Figure 4 Effects of PKCδ inhibitors on human tumor cell spheroid formation. (A) Hs578T and MCF7 were plated under adherent or non-adherent conditions. Tumor spheroids and adherent cells were collected at 96 hr, stained for CD24 and CD44, and analyzed by flow cytometry. (B) Hs578T, MCF7, breast cancer stem cells (BCSC) and pancreatic cancer stem cells (PCSC) were plated in tumor spheroid media, in the presence of rottlerin, BJE6-106, or DMSO (Control). Tumor spheroids were enumerated at 96 hr, and normalized to the number of spheroids in the control cultures (assigned an arbitrary value of 100%). p values for comparison between vehicle and rottlerin or BJE6-106 effects were significant (p≤0.001). Photographs are of representative areas of the culture plates. (C) MCF7 cells were exposed BJE6-106 or to rottlerin at the indicated concentrations. The corresponding equivalent volume of solvent (DMSO) was used as a vehicle control (Vehicle). After 24, 48 and 72 hr of exposure, cell mass was evaluated by MTT assay. Control values were normalized to 100%. p values for comparison between vehicle and rottlerin effects on cell number at 24 hr reached significance at 5 μM, and for BJE6-106 at 0.5 μM (p ≤ 0.02), and were significant for all concentrations tested at 48 and 72 hr time points. (D) Hs578T cells were exposed to vehicle or BJE6-106 (1 μM) for 6, 12, 24, 48 or 96 hr. Viable cells were enumerated and re-plated in media without BJE6-206, and spheroid numbers were quantitated 96 hr later. p values for comparison between vehicle and BJE6-106 effects on spheroid number were significant after 6 hr of exposure (p≤0.02), and remained significant at all time points thereafter. Error bars represent SEM.

recombinant PKCα = molecular target: T1, recombinant PKCα (Homo sapiens, UniProt P17252); assay: PKC kinase activity assay (Z-lyte), PKCα; type: biochemical
T1 construct: purchased Invitrogen
Procedure: Assays were carried out using recombinant PKCδ or PKCα, (Invitrogen) and the Z-lyte Kinase Assays (Invitrogen) with a “PKC-kinase-specific” peptide substrate. FRET interactions produce a change in fluorescence (ex455/ex520) upon phosphorylation. The kit was used according to the manufacturer’s instructions.

PCSC cells = assay: Cell proliferation (MTT) of pancreatic cancer stem cells; type: cell-based, human; conditions: for IC50: Homo sapiens, read-out: IC50 (in culture), growth of PCSC; for IC50 / lowest concentration significantly inhibiting growth of PCSC cultures: 48 hr; for lowest concentration significantly inhibiting growth of PCSC cultures: p ≤ 0.02 vs vehicle
Procedure: Cell proliferation was assessed using an MTT [3-(4,5-dimethylthiazol-2-yl)-2,5-diphenyltetrazolium bromide] assay (Roche, Mannheim, Germany). The number of viable cells growing in a single well on a 96-well microtiter plate was estimated by adding 10 μl of MTT solution (5 mg/ml in phosphate-buffered saline [PBS]). After 4 h of incubation at 37°C, the stain was diluted with 100 μl of dimethyl sulfoxide. The optical densities were quantified at a test wavelength of 570 nm and a reference wavelength of 690 nm on a multiwell spectrophotometer. In some assays, MTS was used as substrate (Promega, Madison, WI), and the absorbance of the product was monitored at 490 nm. Cell enumeration was carried out using a hemocytometer, and viable cells identified by trypan blue exclusion.
Figure 2 Effects of PKCδ inhibitors on human cancer stem cells. (A) PCSC and PrCSC cells at 80% confluence were exposed to rottlerin. DMSO served as vehicle control (Vehicle). After 24 and 72 hr of exposure, cell mass was evaluated by MTT assay. Control values were normalized to 100%. p values for comparison between treatments reached significance at 24 hr of exposure (p≤0.01) for both cell types, and remained significant at 72 hr. (B) PCSC and PrCSC cells at 50% confluence were exposed to rottlerin. Cytotoxicity was evaluated by LDH-release assay. Total maximal LDH release was assigned the arbitrary value of 100% (Control). p values for comparison between effects of treatments on LDH release reached significance at 24 hr of exposure (p<0.01) for both cell types, and remained significant at 72 hr. (C) Effects of PKCδ inhibitor on tumor cell clonogenic capacity. PCSC were exposed to vehicle or rottlerin (10 μM) for 6, 18, 24, or 48 hr. Viable cells were enumerated and re-plated in media without inhibitor, and colony numbers were quantitated 15 days later. p values for comparison of treatment effects on clonogenic capacity reached significance (p=0.005) at 18 hr of exposure and remained significant for all subsequent exposure times. The insert is a photograph of stained colonies on plates. (D) Structures of staurosporine, rottlerin, second-generation (KAM1) and third-generation (BJE6-106) derivatives. (E) PCSC and PrCSC cells at 50% confluence were exposed to KAM1 at the indicated concentrations. DMSO served as vehicle control (Vehicle). Cytotoxicity was evaluated by LDH-release assay, as in panel B. p values for comparison between treatment effects on LDH release reached significance at 24 hr of exposure to 2.5 μM KAM1 for PCSC cells and at 10 μM for PrCSC (p≤0.01), and remained significant at 72 hr for all concentrations of KAM1. Error bars represent SEM.
Figure 3 Effects of a 3rd generation small molecule PKCδ inhibitor on human pancreatic cancer stem cell cultures. PCSC cells were grown to 80% confluence in 96-well plates and then exposed to BJE6-106 at concentrations ranging from 0.1 to 20 μM, or to rottlerin at concentrations ranging from 1 to 20 μM. The corresponding equivalent volume of solvent (DMSO) was used as a vehicle control (Vehicle). After 48 and 72 hr of exposure, cell mass was evaluated by MTT assay. Control values were normalized to 100%. Error bars represent SEM. p values for comparison between vehicle and rottlerin effects on cell number at 48 hr reached significance at 1 μM, and for BJE6-106 at 0.1 μM (p ≤ 0.02), and remained significant at the 72 hr time point.

SBcl2 = assay: Tumor spheroid growth, SBcl2 melanoma; type: cell-based, human; conditions: p < 0.001
Procedure: as §1

[2] = test system: normal primary cells or cell lines; conditions: at the concentrations employed herein; cited from earlier work

IC50 (recombinant PKCα; in vitro kinase assay, read-out: PKCα IC50)	Structure (SMILES)	concentrations producing cytotoxic activity against cells with aberrant Ras signaling [1]	exposure time for near maximum inhibition of spheroid formation (washout) (Hs578T cells; BJE6-106 at 1 μM, Hs578T)	exposure time that significantly repressed spheroid formation (washout) (Hs578T cells; BJE6-106 at 1 μM, Hs578T, spheroids counted 96 hr after re-plating)	effect on formation of spheroids, Hs578T (Hs578T cells)	IC50 (PCSC cells; MTT)	lowest concentration significantly inhibiting growth of PCSC cultures (PCSC cells; MTT)	inhibition of tumor spheroid growth, SBcl2 (SBcl2; BJE6-106 at 0.5-1.0 μM)	cytostatic or cytotoxic effect on normal primary cells or cell lines [2]	IC50 (recombinant PKCα)	growth-inhibitory activity on PCSC at 0.5 μM (PCSC cells; 0.5 μM)	effect on proliferation of PCSC (PCSC cells; MTT, as early as 24 hr after exposure)	inhibition at 10 µM (SBcl2; Homo sapiens, SBcl2, rottlerin at 10 μM)
50 µM	CC1(C)C=Cc2cc(CCn3c4ccccc4c4ccccc43)cc(C=O)c2O1 [BJE6-106, 6-(2-(9H-carbazol-9-yl)ethyl)-2,2-dimethyl-2H-chromene-8-carbaldehyde]	nM concentrations	≤ 24 h	6 h	very efficiently inhibited	~0.5 µM	0.1 µM	> 99.5%					
	CC(=O)c1c(O)c(C)c(O)c(Cc2c(O)c3c(c(C(=O)/C=C/c4ccccc4)c2O)OC(C)(C)C=C3)c1O [rottlerin, Rottlerin, reference compound]				very efficiently inhibited	~3 µM	1 µM		not cytostatic or cytotoxic	75 µM	no significant inhibitory activity	significant dose-dependent inhibition of proliferation	> 99.5%
